Experimental data: PubChem BioAssay (NCI)
Where “and” joins values, the source holds several entries; their conditions need not be identical. Equal entries are not always repeated.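 Grown in 96-well plates, cells were treated for 48 hours with each compound at five concentrations. Insufficient inhibition: endpoint recorded as highest concentration tested. GI50 = concentration required for 50% inhibition of growth. TGI: concentration producing complete growth inhibition.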

Legend:
Assay in all cases: NCI tumour cell line growth inhibition, 48 h
DMS 273 small cell lung = system: DMS 273 small cell lung
LXFL 529 NSCLC = system: LXFL 529 NSCLC
HOP-18 NSCLC = system: HOP-18 NSCLC
M19-MEL melanoma = system: M19-MEL melanoma
SNB-78 CNS = system: SNB-78 CNS
KM20L2 colon = system: KM20L2 colon
XF 498 CNS = system: XF 498 CNS
RXF-631 renal = system: RXF-631 renal
MDA-N = system: MDA-N
P388 leukemia = system: P388 leukemia
P388/ADR leukemia = system: P388/ADR leukemia
SN12K1 renal = system: SN12K1 renal

Row | Compound | TGI (DMS 273 small cell lung) | TGI (LXFL 529 NSCLC) | TGI (HOP-18 NSCLC) | TGI (M19-MEL melanoma) | TGI (SNB-78 CNS) [µM] | TGI (KM20L2 colon) | TGI (XF 498 CNS) | TGI (RXF-631 renal) [µM] | TGI (MDA-N) | also measured
1 | CC1=C(C(=O)Nc2ccccc2C)C(c2ccccc2)C(C(=O)Nc2ccccc2C)=C(C)N1 | > 100 µM | > 100 µM | > 100 µM | > 100 µM | 97.4 | > 100 µM | 83.2 µM | – | – | –
2 | O=C(c1ccccc1)C(c1ccccc1)C1(O)C(=O)Nc2c(Cl)cc(Cl)cc21 (configuration not stated) | 83.2 µM | 25.7 µM | 36.6 µM | – | 67.4 | > 100 µM | > 100 µM | 38 | – | –
3 | CCOC(=O)[C@@]1(C)C=C2O[C@@H]3OC4(CCCCC4)O[C@@H]3C2=C2C(O)=CC=C(O)[C@]21C(=O)OC | > 68 µM | > 68 µM | > 68 µM | > 68 µM | > 68 | > 68 µM | > 68 µM | > 68 | – | –
4 | C=CCn1c2c(c3ccccc3c1=O)C(=O)c1ccccc1-2 | – | – | – | – | – | – | – | – | > 100 µM | –
5 | Nn1c(-c2ccccc2)nc2ccc(Br)cc2c1=O | > 100 µM | > 100 µM | > 100 µM | > 100 µM | > 100 | > 100 µM | > 100 µM | > 100 | – | –
6 | Cc1ccc(OCC(=O)N2N=C(c3ccccc3)CC2(O)c2ccccc2)cc1 (configuration not stated) | 40.2 µM | > 100 µM | – | > 100 µM | 51.5 | 41.3 µM | > 100 µM | > 100 | – | –
7 | CC1=C(C(=O)Nc2c(C)cccc2C)C(c2ccc3c(c2)OCO3)C(C(=O)Nc2c(C)cccc2C)=C(C)N1 | – | 43.9 µM | 48.2 µM | – | 78.8 | 29 µM | – | 42.3 | – | –
8 | N#Cc1cn(C2OC(CO)C(O)C2O)c2ncnc(N)c12 (configuration not stated) | 0.39 µM and 0.07 µM | – | – | 1.56 µM and 7.69 µM | > 450 | 3.42 µM and 12 µM | 0.013 µM and 0.0663 µM | – | – | GI50 (HOP-18 NSCLC): 0.0557 µM; GI50 (P388 leukemia): 0.00528 µM and 0.045 µM; TGI (P388 leukemia): 0.137 µM and 0.0463 µM; GI50 (P388/ADR leukemia): 0.0127 µM and 0.045 µM; GI50 (SNB-78 CNS): 0.0736 µM; TGI (SN12K1 renal): 3.13 µM; GI50 (KM20L2 colon): 0.0045 µM; GI50 (MDA-N): 0.0281 µM; GI50 (XF 498 CNS): 0.045 µM
9 | Cc1ncc(CN=Cc2ccc(Cl)cc2)c(N)n1 | – | – | – | – | – | – | – | – | > 100 µM | –
10 | COc1cccc(C2CC(C)(N3CCCC3)Oc3cc4c(cc32)OCO4)c1O (configuration not stated) | – | – | – | – | – | – | – | – | 10.7 µM | –
11 | O=C1C(=O)N(C(=O)c2ccc(Cl)c(Cl)c2)c2ccccc21 | > 100 µM | > 100 µM | > 100 µM | > 100 µM | > 100 | – | – | > 100 | – | –
12 | O=C(c1ccccc1)C(C(=O)c1ccccc1)C1(O)C(=O)c2ccccc2C1=O | > 100 µM | > 100 µM | > 100 µM | 42.6 µM | > 100 | > 100 µM | > 100 µM | – | – | –
13 | O=C(O)CSc1n[nH]c(-c2ccc(O)cc2)n1 | > 100 µM | – | > 100 µM | > 100 µM | > 100 | > 100 µM | > 100 µM | > 100 | – | –
14 | O=C1CC(O)C=C1Nc1ccc(Cl)cc1 (configuration not stated) | > 100 µM | > 100 µM | > 100 µM | > 100 µM | > 100 | 37.8 µM | – | > 100 | – | –
15 | N#CCC(=O)Nc1cccc(C(F)(F)F)c1 | > 100 µM | > 100 µM | > 100 µM | > 100 µM | > 100 | > 100 µM | > 100 µM | > 100 | – | –
16 | COC(=O)C1CC2(CC3=C1CCCC3)OCCO2 (configuration not stated) | > 100 µM | > 100 µM | – | > 100 µM | > 100 | – | > 100 µM | > 100 | – | –
17 | COc1cc([C@H]2c3cc4c(cc3O[C@@]3(O)COC(=O)[C@@H]23)OCO4)cc(OC)c1OC | > 100 µM | – | > 100 µM | > 100 µM | > 100 | > 100 µM | > 100 µM | > 100 | > 100 µM | –
18 | CN1CC[C@@H](c2c(O)cc(O)c3c(=O)cc(-c4ccccc4Cl)oc23)[C@@H](O)C1 | 0.32 µM | > 68.6 µM | – | – | > 17.6 | – | 0.533 µM | – | 0.349 µM and 0.148 µM | GI50 (MDA-N): 0.124 µM and 0.0494 µM
19 | CC1=C(C)C(=O)c2c(cc3ccc4ccccc4n23)C1=O | > 100 µM | > 100 µM | > 100 µM | > 100 µM | > 100 | – | – | > 100 | – | –
20 | CC(=O)O/C=C(/C=C/OC(C)=O)C(C/C=C(\C)C#CC=C(C)C)OC(C)=O (configuration not stated) | > 100 µM | 37.1 µM | > 100 µM | 41.7 µM | 72.2 | > 100 µM | > 100 µM | > 100 | – | –
21 | Cn1c(=O)nc2n(-c3ccc(Cl)cc3)c3ccc(Cl)cc3nc-2c1=O | – | – | – | – | 29.6 | 36.7 µM | – | – | – | –

Row | Compound | TGI (DMS 273 small cell lung) | TGI (LXFL 529 NSCLC) | TGI (HOP-18 NSCLC) | TGI (M19-MEL melanoma) | TGI (SNB-78 CNS) [µM] | TGI (KM20L2 colon) | TGI (XF 498 CNS) | TGI (RXF-631 renal) [µM] | TGI (MDA-N) | also measured
22 | Cc1cc2c(c(C#N)c1C)NC(=O)CCC2=O | > 100 µM | > 100 µM | – | > 100 µM | > 100 | > 100 µM | > 100 µM | > 100 | – | –
23 | CC(=O)n1c(COS(C)(=O)=O)nc2ccccc21 | – | – | – | – | – | – | – | – | > 100 µM | –
24 | Cc1nc2c(nc1C)C(=O)c1cc(O)ccc1C2=O | > 100 µM | > 100 µM | > 100 µM | 22.3 µM | > 100 | > 100 µM | – | – | – | –
25 | N#CCC1COc2ccccc2O1 (configuration not stated) | – | – | – | – | – | – | – | – | > 10 µM | –
26 | O=C(CNc1nncs1)NO | > 100 µM | > 100 µM | > 100 µM | > 100 µM | > 100 | > 100 µM | – | – | – | –
27 | CCOc1ccccc1NC(=O)C(=O)CC(=O)c1c(C)n([O-])c2ccccc2[n+]1=O | > 100 µM | > 100 µM | > 100 µM | > 100 µM | > 100 | > 100 µM | – | – | – | –
28 | Nc1nc(SCc2ccccn2)c2ncn(C3CCCC3)c2n1 | – | – | – | – | – | – | – | – | > 100 µM | –
29 | N#Cc1c(Sc2ccccc2N)cccc1Sc1ccccc1N | – | – | – | – | – | – | – | – | – | GI50 (MDA-N): 49.1 µM
30 | Cn1c2c(c3ccccc31)CCN(CCCCN1CCc3c(n(C)c4ccccc34)C1=O)C2 | > 100 µM | > 100 µM | > 100 µM | > 100 µM | > 100 | > 100 µM | > 100 µM | > 100 | – | –
31 | Cc1cnc2c(C)ccc([N+](=O)[O-])c2c1NCCCN(C)C | > 100 µM | – | – | > 100 µM | > 100 | > 100 µM | – | – | – | –
32 | COc1cc(OC)c([C@@H]2OC(=O)C3C2C(=O)O[C@H]3c2cc(OC)c(OC)cc2OC)cc1OC (some centres not stated) | > 100 µM | > 100 µM | > 100 µM | > 100 µM | > 100 | > 100 µM | > 100 µM | – | – | –
33 | Cc1cc(C)nc(NS(=O)(=O)c2ccc(Nc3c4ccccc4nc4c(C(=O)Nc5ccc(S(=O)(=O)N=C(N)N)cc5)ccc(Cl)c34)cc2)n1 | > 100 µM | 72.4 µM | > 100 µM | 55.4 µM | > 100 | > 100 µM | 56.7 µM | – | – | –
34 | N#Cc1c(-c2nc3ccccc3s2)c(=O)oc2cc(O)ccc12 | – | – | – | – | – | – | – | – | > 100 µM | –
35 | C[C@@H]1C[C@@H](O)[C@]2(O)O[C@@H]3C[C@@]4(C=O)[C@@H](CC[C@@H]5[C@@H]4CC[C@]4(C)[C@@H](C6=CC(=O)OC6)CC[C@]54O)C[C@H]3O[C@@H]2O1 | 0.0724 µM and 0.0123 µM | 0.0164 µM and 0.0576 µM | – | 0.104 µM and 0.0732 µM | 0.211 | 0.0631 µM and 0.107 µM | 0.0571 µM and 0.0493 µM | – | 0.189 µM | GI50 (HOP-18 NSCLC): 0.005 µM; GI50 (M19-MEL melanoma): 0.0125 µM; GI50 (KM20L2 colon): 0.0218 µM; GI50 (XF 498 CNS): 0.0206 µM
36 | CC1OC(OCC2OC(Oc3c(-c4ccc(O)cc4)oc4cc(O)cc(O)c4c3=O)C(OC3OCC(O)(CO)C3O)C(O)C2O)C(O)C(O)C1O (configuration not stated) | > 100 µM | > 100 µM | > 100 µM | 61.6 µM | > 100 | > 100 µM | – | > 100 | – | –
37 | Nc1ccn(CCOC(=O)c2ccccc2)c(=O)n1 | > 100 µM | > 100 µM | > 100 µM | – | > 100 | > 100 µM | – | > 100 | – | –
38 | CN1CCN(CN2C(=O)C3C4C=CC(C3C2=O)C2C3C(=O)N(CN5CCN(C)CC5)C(=O)C3C42)CC1 (configuration not stated) | 39.4 µM and 30.9 µM and 10.6 µM | 35.9 µM and 32.7 µM and 57.3 µM | 71 µM and 34.4 µM and > 100 µM | – | – | 56.8 µM and 40.9 µM and 63.4 µM | – | – | 32.5 µM | GI50 (HOP-18 NSCLC): 34.4 µM and 13 µM and 48.6 µM
39 | COc1ccc(C(=O)/C(Br)=C/C(=O)O)cc1 | 26.3 µM | – | 139 µM | 106 µM | – | 185 µM | 16 µM | – | 209 µM and 153 µM | TGI (P388 leukemia): 53.7 µM; TGI (P388/ADR leukemia): 108 µM; TGI (SN12K1 renal): 22.6 µM; GI50 (MDA-N): 47.4 µM
40 | COc1cc(CCc2ccc(OCCN(C)C)cc2)cc(OC)c1OC | > 100 µM | > 100 µM | > 100 µM | > 100 µM | > 100 | > 100 µM | 93.7 µM | > 100 | – | –
41 | O=[N+]([O-])c1ccc(C(c2c[nH]c3ccccc23)c2c[nH]c3ccccc23)cc1 | – | – | – | – | – | – | – | – | 27.5 µM | –
42 | O=C(O)c1c(-c2cccc3ccccc23)sc(-c2cccc3ccccc23)c1C(=O)O | > 100 µM | > 100 µM | > 100 µM | > 100 µM | > 100 | > 100 µM | > 100 µM | – | – | –
